Assays:
[1] = target: human orexin-2 receptor (Homo sapiens (Human), UniProt O43614); test: FLIPR Ca2+ Flux Assay, hOX2R; assay type: cell-based; settings: CHO cells expressing the receptor; agonist Ala-6,12 human orexin-A
Method: The utility of the compounds in accordance with the present invention as orexin receptor OX1R and/or OX2R antagonists may be readily determined without undue experimentation by methodology well known in the art, including the “FLIPR Ca^2+ Flux Assay” (Okumura et al., Biochem. Biophys. Res. Comm. 280:976-981, 2001). In a typical experiment the OX1 and OX2 receptor antagonistic activity of the compounds of the present invention was determined in accordance with the following experimental method. For intracellular calcium measurements, Chinese hamster ovary (CHO) cells expressing the rat orexin-1 receptor or the human orexin-2 receptor, are grown in Iscove's modified DMEM containing 2 mM L-glutamine, […], 1% hypoxanthine-thymidine supplement, 100 U/ml penicillin, 100 μg/ml streptomycin and 10% heat-inactivated fetal calf serum (FCS). The cells are seeded at 20,000 cells/well into Becton-Dickinson black 384-well clear bottom sterile plates coated with poly-D-lysine. All reagents were from GIBCO-Invitrogen Corp. The seeded plates are incubated overnight at 37° C. and 5% CO2. Ala-6,12 human orexin-A as the agonist is prepared as a 1 mM stock solution in 1% bovine serum albumin (BSA) and diluted in assay buffer (HBSS containing 20 mM HEPES, 0.1% BSA and 2.5 mM probenecid, pH7.4) for use in the assay at a final concentration of 70 pM. Test compounds are prepared as 10 mM stock solution in DMSO, then diluted in 384-well plates, first in DMSO, then assay buffer. On the day of the assay, cells are washed 3 times with 100 μl assay buffer and then incubated for 60 min (37° C., 5% CO2) in 60 μl assay buffer containing 1 μM Fluo-4AM ester, 0.02% pluronic acid, and 1% BSA. The dye loading solution is then aspirated and cells are washed 3 times with 100 μl assay buffer. 30 μl of that same buffer is left in each well. Within the Fluorescent Imaging Plate Reader (FLIPR, Molecular Devices), test compounds are added to the plate in a volume of 25 μl, incubated for 5 min and finally 25 μl of agonist is added. Fluorescence is measured for each well at 1 second intervals for 5 minutes and the height of each fluorescence peak is compared to the height of the fluorescence peak induced by […] Ala-6,12 orexin-A with buffer in place of antagonist. For each antagonist, IC50 value (the concentration of compound needed to inhibit 50% of the agonist response) is determined. Alternatively, compound potency can be assessed by a radioligand binding assay (described in Bergman et. al. Bioorg. Med. Chem. Lett. 2008, 18, 1425-1430) in which the inhibition constant (Ki) is determined in membranes prepared from CHO cells expressing either the OX1 or OX2 receptor. The intrinsic orexin receptor antagonist activity of a compound which may be used in the present invention may be determined by these assays.

[2] = target: hOX1R (orexin-1 receptor) (Homo sapiens, UniProt O43613); test: FLIPR Ca2+ Flux Assay, hOX1R; assay type: cell-based; settings: CHO cells expressing the receptor; agonist Ala-6,12 human orexin-A

Sequence of human orexin-2 receptor (O43614 whole entry): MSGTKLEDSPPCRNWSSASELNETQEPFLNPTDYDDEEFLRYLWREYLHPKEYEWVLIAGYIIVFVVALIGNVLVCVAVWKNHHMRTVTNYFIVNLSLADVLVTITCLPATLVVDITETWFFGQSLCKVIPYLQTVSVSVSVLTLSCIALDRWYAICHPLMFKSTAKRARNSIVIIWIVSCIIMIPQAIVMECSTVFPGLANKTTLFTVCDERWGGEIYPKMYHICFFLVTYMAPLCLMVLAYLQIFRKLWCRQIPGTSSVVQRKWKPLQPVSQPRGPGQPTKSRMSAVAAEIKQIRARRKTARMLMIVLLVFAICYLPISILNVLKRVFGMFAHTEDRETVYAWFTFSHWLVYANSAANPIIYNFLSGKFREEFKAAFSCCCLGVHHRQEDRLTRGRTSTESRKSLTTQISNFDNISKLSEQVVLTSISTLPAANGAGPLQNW

| Compound | IC50 [1] [nM] | IC50 [2] [nM] |
| --- | --- | --- |
| C[C@@H]1CC[C@@H](c2nsc(C(C)(C)O)n2)CN1C(=O)c1ccccc1OC(F)F [Example 36, 2-{3-[(3R,6R)-1-{[2-(difluoromethoxy)phenyl]carbonyl}-6-methylpiperidin-3-yl]-1,2,4-thiadiazol-5-yl}propan-2-ol] | 243 | > 10000 |
| CCOc1ccccc1C(=O)N1C[C@H](c2nsc(C(C)(C)O)n2)CC[C@H]1C [Example 37, 2-(3-{(3R,6R)-1-[(2-ethoxyphenyl)carbonyl]-6-methylpiperidin-3-yl}-1,2,4-thiadiazol-5-yl)propan-2-ol] | 146 | > 10000 |
| C[C@@H]1CC[C@@H](c2nsc(C(C)(C)O)n2)CN1C(=O)c1ccccc1OC(F)(F)F [Example 39, 2-{3-[(3R,6R)-6-methyl-1-{[2-(trifluoromethoxy)phenyl]carbonyl}piperidin-3-yl]-1,2,4-thiadiazol-5-yl}propan-2-ol] | 53 | 6380 |
| C[C@@H]1CC[C@@H](c2nsc(C(C)(C)O)n2)CN1C(=O)c1ccsc1-c1ncccn1 [Example 40, 2-(3-{(3R,6R)-6-Methyl-1-[(2-pyrimidin-2-ylthiophen-3-yl)carbonyl]piperidin-3-yl}-1,2,4-thiadiazol-5-yl)propan-2-ol] | 50 | 9990 |
| C[C@@H]1CC[C@@H](c2nsc(C(C)(C)O)n2)CN1C(=O)c1ccccc1-c1ncccn1 [Example 41, 2-(3-{(3R,6R)-6-Methyl-1-[(2-pyrimidin-2-ylphenyl)carbonyl]piperidin-3-yl}-1,2,4-thiadiazol-5-yl)propan-2-ol] | 48 | > 10000 |
| C[C@@H]1CC[C@@H](c2nsc(C(C)(C)O)n2)CN1C(=O)c1cscc1-c1ncccn1 [Example 42, 2-(3-{(3R,6R)-6-methyl-1-[(4-pyrimidin-2-ylthiophen-3-yl)carbonyl]piperidin-3-yl}-1,2,4-thiadiazol-5-yl)propan-2-ol] | 83 | > 10000 |
| COC(C)(C)c1nc([C@@H]2CC[C@@H](C)N(C(=O)c3ccccc3-n3nccn3)C2)ns1 [Example 43, (2R,5R)-5-[5-(1-methoxy-1-methylethyl)-1,2,4-thiadiazol-3-yl]-2-methyl-1-{[2-(2H-1,2,3-triazol-2-yl)phenyl]carbonyl}piperidine] | 39 | 1410 |

Source: patent US10308645B2, “Piperidine oxadiazole and thiadiazole orexin receptor antagonists” (MERCK SHARP & DOHME CORP., priority 2014, dated 2019)
